{
  "source": "patent US7423159B2",
  "about": "“Agent for preventing or treating neuropathy” (Takeda Pharmaceutical Company Limited, priority 2002, dated 2008)",
  "data": [
    {"test_system": "not given", "test": "not given", "settings": "not given", "units": {"melting point": "°C"}, "values": [
      {"smiles": "Cc1cncn1Cc1ccc(NC(=O)/C=C/c2cnn(C)c2-c2ccc(F)cc2)cc1", "note": "[Example 201, (2E)-3-[5-(4-Fluorophenyl)-1-methyl-1H-pyrazol-4-yl]-N-{4-[(5-methyl-1H-imidazol-1-yl)methyl]phenyl}acrylamide]", "melting point": "260 to 261"},
      {"smiles": "Cc1cn(Cc2ccc(NC(=O)/C=C/c3cnn(C)c3-c3ccc(F)cc3)cc2)cn1", "note": "[Example 202, (2E)-3-[5-(4-Fluorophenyl)-1-methyl-1H-pyrazol-4-yl]-N-{4-[(4-methyl-1H-imidazol-1-yl)methyl]phenyl}acrylamide]", "melting point": "202 to 203"},
      {"smiles": "CSc1ccc(NC(=O)/C=C/c2cnn(C)c2-c2ccc(F)cc2)cc1", "note": "[Example 204, (2E)-3-[5-(4-Fluorophenyl)-1-methyl-1H-pyrazol-4-yl]-N-[4-(methylthio)phenyl]acrylamide]", "melting point": "164 to 165"},
      {"smiles": "Cn1ncc(/C=C/C(=O)Nc2ccc(C(=O)c3ccccc3)cc2)c1-c1ccc(F)cc1", "note": "[Example 205, (2E)-N-(4-Benzoylphenyl)-3-[5-(4-fluorophenyl)-1-methyl-1H-pyrazol-4-yl]acrylamide]", "melting point": "110 to 112"},
      {"smiles": "Cn1ncc(/C=C/C(=O)Nc2ccc(S(=O)(=O)c3ccccc3)cc2)c1-c1ccc(F)cc1", "note": "[Example 206, (2E)-3-[5-(4-Fluorophenyl)-1-methyl-1H-pyrazol-4-yl]-N-[4-(phenylsulfonyl)phenyl]acrylamide]", "melting point": "169 to 172"},
      {"smiles": "CSCc1ccc(NC(=O)/C=C/c2cnn(C)c2-c2ccc(SC)cc2)cc1", "note": "[Example 207, (2E)-3-{1-methyl-5-[4-(methylthio)phenyl]-1H-pyrazol-4-yl}-N-{4-[(methylthio)methyl]phenyl}acrylamide]", "melting point": "145 to 146"},
      {"smiles": "CSCc1ccc(NC(=O)/C=C/c2cnn(C)c2-c2ccc(F)cc2)cc1", "note": "[Example 208, (2E)-3-[5-(4-fluorophenyl)-1-methyl-1H-pyrazol-4-yl]-N-{4-[(methylthio)methyl]phenyl}acrylamide]", "melting point": "165 to 168"},
      {"smiles": "COCc1ccc(NC(=O)/C=C/c2cnn(C)c2-c2ccc(F)cc2)cc1", "note": "[Example 209, (2E)-3-[5-(4-Fluorophenyl)-1-methyl-1H-pyrazol-4-yl]-N-[4-(methoxymethyl)phenyl]acrylamide]", "melting point": "170 to 171"},
      {"smiles": "CCSCc1ccc(NC(=O)/C=C/c2cnn(C)c2-c2ccc(F)cc2)cc1", "note": "[Example 210, (2E)-N-{4-[(Ethylthio)methyl]phenyl}-3-[5-(4-fluorophenyl)-1-methyl-1H-pyrazol-4-yl]acrylamide]", "melting point": "157 to 158"},
      {"smiles": "Cn1ncc(/C=C/C(=O)Nc2ccc(CSC(C)(C)C)cc2)c1-c1ccc(F)cc1", "note": "[Example 211, (2E)-N-{4-[(tert-Butylthio)methyl]phenyl}-3-[5-(4-fluorophenyl)-1-methyl-1H-pyrazol-4-yl]acrylamide]", "melting point": "166 to 168"},
      {"smiles": "Cn1ncc(/C=C/C(=O)Nc2ccc(CSc3ccccc3)cc2)c1-c1ccc(F)cc1", "note": "[Example 212, (2E)-3-[5-(4-Fluorophenyl)-1-methyl-1H-pyrazol-4-yl]-N-{4-[(phenylthio)methyl]phenyl}acrylamide]", "melting point": "197 to 198"},
      {"smiles": "Cn1ncc(/C=C/C(=O)Nc2ccc(CSc3c[nH]nn3)cc2)c1-c1ccc(F)cc1", "note": "[Example 213, (2E)-3-[5-(4-Fluorophenyl)-1-methyl-1H-pyrazol-4-yl]-N-(4-[(1H-1,2,3-triazol-4-ylthio)methyl)phenyl]acrylamide]", "melting point": "182 to 183"},
      {"smiles": "Cn1nnnc1SCc1ccc(NC(=O)/C=C/c2cnn(C)c2-c2ccc(F)cc2)cc1", "note": "[Example 214, (2E)-3-[5-(4-Fluorophenyl)-1-methyl-1H-pyrazol-4-yl]-N-(4-[[(1-methyl-1H-tetrazol-5-yl)thio]methyl]phenyl)acrylamide]", "melting point": "150 to 152"},
      {"smiles": "Cn1ncc(/C=C/C(=O)Nc2ccc(C[S+](C)[O-])cc2)c1-c1ccc(F)cc1", "note": "(stereo not drawn) [Example 215, (2E)-3-(5-(4-fluorophenyl)-1-methyl-1H-pyrazol-4-yl)-N-(4-((methylsulfinyl)methyl)phenyl)acrylamide]", "melting point": "240 to 241"},
      {"smiles": "CC[S+]([O-])Cc1ccc(NC(=O)/C=C/c2cnn(C)c2-c2ccc(F)cc2)cc1", "note": "(stereo not drawn) [Example 216, (2E)-N-{4-[(Ethylsulfinyl)methyl]phenyl}-3-[5-(4-fluorophenyl)-1-methyl-1H-pyrazol-4-yl]acrylamide]", "melting point": "228 to 229"},
      {"smiles": "Cn1ncc(/C=C/C(=O)Nc2ccc([S+](C)[O-])cc2)c1-c1ccc(F)cc1", "note": "(stereo not drawn) [Example 217, (2E)-3-[5-(4-Fluorophenyl)-1-methyl-1H-pyrazol-4-yl]-N-[4-(methylsulfinyl)phenyl]acrylamide]", "melting point": "260 to 261"},
      {"smiles": "Cn1ncc(/C=C/C(=O)Nc2ccc(C[S+]([O-])C(C)(C)C)cc2)c1-c1ccc(F)cc1", "note": "(stereo not drawn) [Example 218, (2E)-N-{4-[(tert-Butylsulfinyl)methyl]phenyl}-3-[5-(4-fluorophenyl)-1-methyl-1H-pyrazol-4-yl]acrylamide]", "melting point": "242 to 243"},
      {"smiles": "Cn1ncc(/C=C/C(=O)Nc2ccc(C[S+]([O-])c3ccccc3)cc2)c1-c1ccc(F)cc1", "note": "(stereo not drawn) [Example 219, (2E)-3-[5-(4-Fluorophenyl)-1-methyl-1H-pyrazol-4-yl]-N-{4-[(phenylsulfinyl)methyl]phenyl}acrylamide]", "melting point": "236 to 237"},
      {"smiles": "Cn1nnnc1[S+]([O-])Cc1ccc(NC(=O)/C=C/c2cnn(C)c2-c2ccc(F)cc2)cc1", "note": "(stereo not drawn) [Example 220, (2E)-3-[5-(4-Fluorophenyl)-1-methyl-1H-pyrazol-4-yl]-N-(4-{[(1-methyl-1H-tetrazol-5-yl)sulfinyl]methyl}phenyl)acrylamide]", "melting point": "179 to 183"},
      {"smiles": "Cn1ncc(/C=C/C(=O)Nc2ccc(CS(=O)(=O)C(C)(C)C)cc2)c1-c1ccc(F)cc1", "note": "[Example 224, (2E)-N-{4-[(tert-Butylsulfonyl)methyl]phenyl}-3-[5-(4-fluorophenyl)-1-methyl-1H-pyrazol-4-yl]acrylamide]", "melting point": "260 to 261"},
      {"smiles": "Cn1ncc(/C=C/C(=O)Nc2ccc(CS(=O)(=O)c3ccccc3)cc2)c1-c1ccc(F)cc1", "note": "[Example 225, (2E)-3-[5-(4-Fluorophenyl)-1-methyl-1H-pyrazol-4-yl]-N-{4-[(phenylsulfonyl)methyl]phenyl}acrylamide]", "melting point": "223 to 224"},
      {"smiles": "Cn1nnnc1S(=O)(=O)Cc1ccc(NC(=O)/C=C/c2cnn(C)c2-c2ccc(F)cc2)cc1", "note": "[Example 226, (2E)-3-(5-(4-Fluorophenyl)-1-methyl-1H-pyrazol-4-yl]-N-(4-{[(1-methyl-1H-tetrazol-5-yl)sulfonyl]methyl}phenyl)acrylamide]", "melting point": "224 to 225"},
      {"smiles": "Cn1ncc(/C=C/C(=O)Nc2ccc(CS(=O)(=O)c3c[nH]nn3)cc2)c1-c1ccc(F)cc1", "note": "[Example 227, (2E)-3-[5-(4-Fluorophenyl)-1-methyl-1H-pyrazol-4-yl]-N-{4-[(1H-1,2,3-triazol-4-ylsulfonyl)methyl]phenyl}acrylamide]", "melting point": "204 to 206"},
      {"smiles": "Cn1ncc(/C=C/C(=O)Nc2ccc(C(=O)O)cc2)c1-c1ccc(F)cc1", "note": "[Example 234, 4-({(2E)-3-[5-(4-fluorophenyl)-1-methyl-1H-pyrazol-4-yl]prop-2-enoyl}amino)benzoic acid]", "melting point": "291 to 292"}
    ]},
    {"test_system": "rat C6 glioma cells", "test": "GDNF production promoting action in rat C6 glioma cells (ELISA of culture supernatant)", "assay_type": "cell-based", "settings": "Rattus norvegicus, C6 glioma, 48 h; concentration which causes 50% increase of GDNF relative to the control group; cultured 2 days with test compound; GDNF in culture supernatant by ELISA", "description": "(§1) Using rat C6 glioma cells, the GDNF production promoting action of the compound of the present invention was evaluated.\n(§2) Rat C6 glioma cells (ATCC) were grown in Dulbecco's Modified Eagle's Medium (DMEM) containing 10% FBS (Fetal Bovine Serum) in a collagen type 1 coated 75 cm^2 culture flask (SUMITOMO BAKELITE Co., Ltd.) until near confluent, detached by trypsin treatment and washed once with DMEM containing 10% FBS.\n(§3) The cells after washing were diluted with 10% FBS-containing DMEM to a concentration of 5×10^4/mL and seeded at 0.3 mL/well in each well of collagen type 1 coated 48 well culture dish (SUMITOMO BAKELITE Co., Ltd.). After 3 days, the culture in the culture dish was placed in a 1% BSA (bovine serum albumin, Sigma)-containing DMEM medium supplemented with various concentrations of test compound, and further cultured for 2 days. The culture supernatant was recovered and preserved at −80° C. until measurement of GDNF.\n(§4) The content of GDNF in the culture supernatant was measured by the following ELISA Method.\n(§5) Anti-GDNF antibody (MAB212, R&D) was diluted with TBS (Tris buffered physiological saline: 25 mmol/L Tris-HCl (pH 8.0), 150 mmol/L NaCl) to 2 μg/mL and dispensed at 0.1 mL/well to each well of a 96-well immunoplate. The 96-well immunoplate was incubated overnight at 4° C. and washed once with TBS containing Tween 20 at 0.05% (hereinafter to be abbreviated as TBST). A blocking solution (TBS containing 1% BSA and 5% sucrose) was added at 0.2 mL/well to each well after washing, and the plate was incubated at room temperature for 1 hr., after which each well was washed twice with TBST. The culture supernatant (0.1 mL) of the aforementioned C6 cells was added to each well after washing and the plate was incubated at room temperature for 3 hrs., after which the wells were washed 5 times with TBST. The 500-fold diluted anti-GDNF antibody (G2791, Promega) was added by 0.1 mL to each well after washing, incubated at room temperature for 2 hrs. and washed 5 times with TBST. A 5000-fold diluted horseradish peroxidase-labeled anti-chicken IgY antibody (G1351, Promega) was added at 0.1 mL/well to each well after washing, incubated at room temperature for 2 hrs. and washed 5 times with TBST. A substrate solution (TMB substrate solution, BIO-RAD) was added at 0.1 mL/well to each well after washing and allowed to develop color at room temperature for 8 min. To stop the reaction, 0.1 mL of 1 mol/L phosphoric acid was added to each well in coloring developing reaction. The absorbance of the reaction solution at 450 nm wavelength was measured.\n(§6) In the same manner as above except the test compound was not used, the ELISA Method was performed and this was used as a control group.\n(§7) Using various concentrations of GDNF (Promega), ELISA Method was performed in the same manner as above and standard line was prepared.\n(§8) From the aforementioned absorbance and standard line, GDNF content in a sample was calculated and the concentration (EC50), which causes 50% increase of GDNF relative to the control group was calculated from the regression line.", "units": {"EC50": "nM"}, "values": [
      {"smiles": "Cc1cccc(C(O)c2ccc(NC(=O)/C=C/c3cnn(C)c3-c3ccc(F)cc3)cc2)n1", "note": "(stereo not drawn) [Example 50, (2E)-3-[5-(4-Fluorophenyl)-1-methyl-1H-pyrazol-4-yl]-N-{4-[hydroxy(6-methyl-2-pyridinyl)methyl]phenyl}acrylamide]", "EC50": 400}
    ]},
    {"test_system": "rat C6 glioma cells", "test": "GDNF production promoting action in rat C6 glioma cells (ELISA of culture supernatant)", "assay_type": "cell-based", "settings": "concentration which causes 50% increase of GDNF relative to the control group; cultured 2 days with test compound; GDNF in culture supernatant by ELISA", "description": "as §1, §2, §3, §4, §5, §6, §7, §8", "units": {"EC50": "nM"}, "values": [
      {"smiles": "CCCCC1(CC)COP(=O)(Cc2ccc(NC(=O)/C=C/c3cnn(C)c3-c3ccc(F)cc3)cc2)OC1", "note": "(stereo not drawn) [Example 27, (2E)-N-{4-[(5-Butyl-5-ethyl-2-oxide-1,3,2-dioxaphosphinan-2-yl)methyl]phenyl}-3-[5-(4-fluorophenyl)-1-methyl-1H-pyrazol-4-yl]acrylamide]", "EC50": 500},
      {"smiles": "Cn1ncc(/C=C/C(=O)Nc2ccc(-n3ccnc3)cc2)c1-c1ccc(F)cc1", "note": "[Example 195]", "EC50": 120}
    ]}
  ]
}
